Reference: PMC11288129, “Diversely evolved xibalbin variants from remipede venom inhibit potassium channels and activate PKA-II and Erk1/2 signaling” (BMC Biology, 2024)
Positions of bridges follow the written chain, without caps; N, C: chain ends. No end group written: not given here.

Test system: HMEC-1 human microvascular endothelial cells
Experiment: Proliferation of HMEC-1 cells (crystal violet)
Format: cell-based
Settings: 25 µg/ml
Method: We initially determined the cytotoxic effects of xibalbins on primary sensory neurons from adult male rats cultured in vitro [2]. […] We exposed overnight cultures of dissociated rat dorsal root ganglions (DRGs) to xibalbins for 5 and 30 min. Subsequently, all cells were fixed and immunocytochemically stained for the neuronal marker UCHL1 to identify neurons. The entire culture was digitally scanned using high content imaging (HCI) microscopy, and cell numbers, UCHL1 staining per cell, and cell size was analyzed. No loss of neurons was induced by either of the tested xibalbins, even at the highest concentration of 0.8 µg/µL (Additional File 3: Figure S2). […] We further investigated the potential toxicity of xibalbins in monocyte/macrophage-like cells (RAW264.7) and human microvascular endothelial cells (HMEC); see Additional File 5: Figure S4 The viability of RAW264.7 cells was detected using a formazan-based assay, while the proliferation of HMECs was assessed by measuring the number of crystal violet-stained cells.
Supplementary file 12915_2024_1955_MOESM5_ESM.jpg: Additional file 5: Figure S4. Effects of xibalbins on cytotoxicity in RAW264.7 macrophages and adhesion of leukocytes onto the vascular endothelium. […] Cells were incubated with WST-8 and the formed formazan was detected by absorbance measurements. […] The amount of DNA-bound crystal violet was detected by absorbance measurements. […]

## KRSCIRRFGRCDHRPNDCCYNSSCRCNLWGSNCRCQRMGLFQKWGK (disulfide 4-19, 11-24, 18-35, 26-33) [xib13]
  Prolif. HMEC-1: 91.3
